Source: PMC12397248, “Proanthocyanidins inhibit CYP1B1 through mixed-type kinetics and stable binding in molecular dynamics simulations” (Scientific Reports, 2025)

How the values were obtained:
[1] = molecular target: T1, Cytochrome P450 1B1 (CYP1B1) (Homo sapiens, UniProt Q16678); assay: recombinant human CYP1B1 ethoxyresorufin O-deethylation fluorescence assay; Michaelis-Menten and Lineweaver-Burk kinetics; type: biochemical
T1 sequence (Q16678 1-543): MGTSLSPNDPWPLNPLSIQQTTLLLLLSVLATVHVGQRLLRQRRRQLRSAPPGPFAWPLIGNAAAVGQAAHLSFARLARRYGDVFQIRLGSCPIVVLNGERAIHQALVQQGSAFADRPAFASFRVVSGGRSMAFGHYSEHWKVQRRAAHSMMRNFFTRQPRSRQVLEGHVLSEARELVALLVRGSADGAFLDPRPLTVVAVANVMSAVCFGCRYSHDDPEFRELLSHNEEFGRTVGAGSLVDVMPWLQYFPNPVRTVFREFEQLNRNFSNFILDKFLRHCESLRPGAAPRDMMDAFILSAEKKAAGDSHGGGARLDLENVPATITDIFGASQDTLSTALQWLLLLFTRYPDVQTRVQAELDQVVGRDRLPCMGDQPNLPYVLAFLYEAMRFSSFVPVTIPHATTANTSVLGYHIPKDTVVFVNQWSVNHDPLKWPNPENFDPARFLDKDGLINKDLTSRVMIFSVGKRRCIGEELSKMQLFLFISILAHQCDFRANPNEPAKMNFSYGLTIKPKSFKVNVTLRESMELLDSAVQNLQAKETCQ

[2] = substrate: CCOc1ccc2nc3ccc(=O)cc-3oc2c1; assay: Michaelis-Menten kinetics of O-deethylation by recombinant CYP1B1 (Km); type: biochemical, Homo sapiens; details: heme; NADPH

Row | Molecule | IC50 [1] [nM] | Km [2] [mM]
1 | proanthocyanidin [PA] | 2530 ± 10 | –
2 | Cytochrome P450 1B1 (CYP1B1) (Homo sapiens) (protein) MGTSLSPNDPWPLNPLSIQQTTLLLLLSVLATVHVGQRLLRQRRRQLRSAPPGPFAWPLIGNAAAVGQAAHLSFARLARRYGDVFQIRLGSCPIVVLNGERAIHQALVQQGSAFADRPAFASFRVVSGGRSMAFGHYSEHWKVQRRAAHSMMRNFFTRQPRSRQVLEGHVLSEARELVALLVRGSADGAFLDPRPLTVVAVANVMSAVCFGCRYSHDDPEFRELLSHNEEFGRTVGAGSLVDVMPWLQYFPNPVRTVFREFEQLNRNFSNFILDKFLRHCESLRPGAAPRDMMDAFILSAEKKAAGDSHGGGARLDLENVPATITDIFGASQDTLSTALQWLLLLFTRYPDVQTRVQAELDQVVGRDRLPCMGDQPNLPYVLAFLYEAMRFSSFVPVTIPHATTANTSVLGYHIPKDTVVFVNQWSVNHDPLKWPNPENFDPARFLDKDGLINKDLTSRVMIFSVGKRRCIGEELSKMQLFLFISILAHQCDFRANPNEPAKMNFSYGLTIKPKSFKVNVTLRESMELLDSAVQNLQAKETCQ | – | 0.236 ± 0.074
